{"source": "patent US20170112857A1", "about": "“Extended Release Aspirin” (New Haven Pharmaceuticals, Inc., priority 2015, published 2017)", "format_in_all_cases": "in vivo, human", "key": {"platelet aggregation [1]": {"tested_on": "platelet aggregation", "experiment": "AA-, collagen- and ADP-induced light transmittance aggregometry (LTA)", "details": "Visit 2 trough", "description": "High platelet reactivity has previously been implicated in incomplete inhibition during therapy with immediate release low-dose aspirin in patients with type II diabetes. The main study consisted of a run-in phase where subjects were administered 81 mg, everyday (“QD”), of immediate release acetylsalicylic acid (“IR ASA”) for 7-28 days. […] During Visits 2 and 5 subjects were subjected to the following tests: (1) platelet aggregation measurements (a) AA induced, (b) collagen induced, and (c) Multiplate®; […] During Visits 3 and 6 subjects were subjected to the following tests: (1) platelet aggregation measurements (a) AA induced, (b) collagen induced, and (c) Multiplate®; […] An increase in platelet aggregation ([…], or […] or […]) by more than 15% with either agonists (i.e., arachidonic acid or collagen) is considered a significant loss of aspirin effect over 24 hours. […] For this study the trough level data are from the following timepoints: (1) for 81 mg-the data at Visit 2; […]"}, "platelet aggregation [2]": {"tested_on": "platelet aggregation", "experiment": "Multiplate platelet aggregation", "details": "Visit 2 trough", "description": "The main study consisted of a run-in phase where subjects were administered 81 mg, everyday (“QD”), of immediate release acetylsalicylic acid (“IR ASA”) for 7-28 days. […] During Visits 2 and 5 subjects were subjected to the following tests: (1) platelet aggregation measurements (a) AA induced, (b) collagen induced, and (c) Multiplate®; […] During Visits 3 and 6 subjects were subjected to the following tests: (1) platelet aggregation measurements (a) AA induced, (b) collagen induced, and (c) Multiplate®; […] For this study the trough level data are from the following timepoints: (1) for 81 mg—the data at Visit 2; […]"}, "[3]": {"tested_on": "High Sensitive C-Reactive Protein (hs-CRP)", "experiment": "High Sensitive C-Reactive Protein (hs-CRP) test", "details": "V2 pre-dose, 81 mg IR ASA", "description": "Subjects were also measured for high sensitive C-reactive protein (“hs-CRP”) levels at Visit 1, Visit 2, Visit 3 pre-dose, Visit 3 at 24 hours, Visit 6 pre-dose and Visit 6 at 24 hours.\nHigh Sensitive C-Reactive Protein (“hs-CRP”) was measured using a Seimens Immulite 2000® Xpi analyzer (Immulite 2000 is a registered trademark of Siemens Healthcare Diagnostic, Inc.), prior to 162.5 mg ER ASA (Durlaza®) dosing at Visit 2 pre-dose, at Visit 3 pre-dose and Visit 3 at 24-hr post-dose for the 162.5 mg ER ASA (Durlaza®) dose, and at Visit 6 pre-dose and Visit 6 at 24-hr post-dose for the 325 mg ER ASA dose."}, "TxB2": {"tested_on": "TxB2", "experiment": "Urinary TxB2 excretion by GC/MS, basal and bradykinin-stimulated (Example 3)", "details": "for Basal urinary TxB2 levels over placebo: 24 hours post-dosing; for Bradykinin-stimulated TxB2 levels over placebo: 4 hours post-dosing", "from_the_text": "[…] This protocol was repeated two additional times. […] Statistical analysis was done using Wilcoxon rank sum test for continuous variables and the Pearson test for categorical variables."}, "Interleukin-8 (IL-8)": {"tested_on": "Interleukin-8 (IL-8)", "experiment": "Bradykinin-stimulated Interleukin-8 serum levels (Example 4)", "description": "Subjects of Group 1 were randomly administered a placebo, 81 mg IR ASA and 162.5 mg IR ASA. Subjects of Group 2 were randomly administered a placebo, 81 mg ER ASA and 162.5 mg ER ASA (Durlaza®). Each subject was prohibited from taking any aspirin for two weeks prior to being administered the randomly chosen drug daily for 1 week followed by a urine collection 24 hours after dosing. This protocol was repeated two additional times. For each urine collection TxB2 and 2, 3-dinor-6-keto-PGF1α (“prostacyclin”) levels were measured using gas chromatography-mass spectrometry (“GC/MS”). Statistical analysis was done using Wilcoxon rank sum test for continuous variables and the Pearson test for categorical variables.\nInterleukin-8 (“IL-8”) serum levels (and Interleukin-6 levels, not shown) were measured both prior to and after administration of 0, 81 or 162.5 mg of either IR ASA or ER ASA."}, "[4]": {"details": "81 mg IR, subjects compared with Visit 6 (sub-study)"}}, "data": [{"molecule": "CC(=O)Oc1ccccc1C(=O)O", "note": "[IR ASA, acetylsalicylic acid]", "values": [{"measurement": "LTA (%) 2 μg/mL Collagen (Final)", "setting": "platelet aggregation [1]; 81 mg IR QD, main study", "value": "54 ± 25", "unit": "%"}, {"measurement": "LTA (%) 2 μg/mL Collagen (Max)", "setting": "platelet aggregation [1]; 81 mg IR QD, main study", "value": "57 ± 24", "unit": "%"}, {"measurement": "LTA (%) 4 μg/mL Collagen (Final)", "setting": "platelet aggregation [1]; 81 mg IR QD, main study", "value": "65 ± 20", "unit": "%"}, {"measurement": "LTA (%) 4 μg/mL Collagen (Max)", "setting": "platelet aggregation [1]; 81 mg IR QD, main study", "value": "66 ± 21", "unit": "%"}, {"measurement": "LTA (%) 5 μM ADP (Final)", "setting": "platelet aggregation [1]; 81 mg IR QD, main study", "value": "50 ± 17", "unit": "%"}, {"measurement": "LTA (%) 5 μM ADP (Max)", "setting": "platelet aggregation [1]; 81 mg IR QD, main study", "value": "59 ± 14", "unit": "%"}, {"measurement": "LTA (%) 1 mM AA (Max)", "setting": "platelet aggregation [1]; 81 mg IR QD, main study", "value": "5 ± 12", "unit": "%"}, {"measurement": "LTA (%) 2 mM AA (Final), first line so labelled (r8)", "setting": "platelet aggregation [1]; 81 mg IR QD, main study", "value": "5 ± 12", "unit": "%"}, {"measurement": "LTA (%) 2 mM AA (Final), second line (r10)", "setting": "platelet aggregation [1]; 81 mg IR QD, main study", "value": "6 ± 13", "unit": "%"}, {"measurement": "LTA (%) 2 mM AA (Max)", "setting": "platelet aggregation [1]; 81 mg IR QD, main study", "value": "7 ± 14", "unit": "%"}, {"measurement": "LTA (%) 2 μg/mL Collagen (Final)", "setting": "platelet aggregation [1]; [4]", "value": "67 ± 12", "unit": "%"}, {"measurement": "LTA (%) 2 μg/mL Collagen (Max)", "setting": "platelet aggregation [1]; [4]", "value": "68 ± 11", "unit": "%"}, {"measurement": "LTA (%) 4 μg/mL Collagen (Final)", "setting": "platelet aggregation [1]; [4]", "value": "71 ± 13", "unit": "%"}, {"measurement": "LTA (%) 4 μg/mL Collagen (Max)", "setting": "platelet aggregation [1]; [4]", "value": "73 ± 12", "unit": "%"}, {"measurement": "LTA (%) 5 μM ADP (Final)", "setting": "platelet aggregation [1]; [4]", "value": "52 ± 14", "unit": "%"}, {"measurement": "LTA (%) 5 μM ADP (Max)", "setting": "platelet aggregation [1]; [4]", "value": "61 ± 10", "unit": "%"}, {"measurement": "LTA (%) 1 mM AA (Max)", "setting": "platelet aggregation [1]; [4]", "value": "4 ± 2", "unit": "%"}, {"measurement": "LTA (%) 2 mM AA (Final), first line so labelled (r8)", "setting": "platelet aggregation [1]; [4]", "value": "3 ± 2", "unit": "%"}, {"measurement": "LTA (%) 2 mM AA (Final), second line (r10)", "setting": "platelet aggregation [1]; [4]", "value": "3 ± 2", "unit": "%"}, {"measurement": "LTA (%) 2 mM AA (Max)", "setting": "platelet aggregation [1]; [4]", "value": "4 ± 2", "unit": "%"}, {"measurement": "MultiPlate (AU) AA", "setting": "platelet aggregation [2]; 81 mg IR QD, main study", "value": "17 ± 14", "unit": "AU"}, {"measurement": "MultiPlate (AU) ADP", "setting": "platelet aggregation [2]; 81 mg IR QD, main study", "value": "70 ± 24", "unit": "AU"}, {"measurement": "MultiPlate (AU) Collagen", "setting": "platelet aggregation [2]; 81 mg IR QD, main study", "value": "36 ± 17", "unit": "AU"}, {"measurement": "MultiPlate (AU) AA", "setting": "platelet aggregation [2]; [4]", "value": "24 ± 13", "unit": "AU"}, {"measurement": "MultiPlate (AU) ADP", "setting": "platelet aggregation [2]; [4]", "value": "77 ± 15", "unit": "AU"}, {"measurement": "MultiPlate (AU) Collagen", "setting": "platelet aggregation [2]; [4]", "value": "47 ± 18", "unit": "AU"}, {"measurement": "hs-CRP, Maximum", "setting": "[3]", "value": 57.4, "unit": "mg/L"}, {"measurement": "hs-CRP, Mean", "setting": "[3]", "value": 9.62, "unit": "mg/L"}, {"measurement": "hs-CRP, Minimum", "setting": "[3]", "value": 0.44, "unit": "mg/L"}, {"measurement": "Basal urinary TxB2 levels over placebo", "setting": "TxB2; 81 mg daily for 1 week", "value": "significantly reduced"}, {"measurement": "dose dependence of the effect on TxB2 synthesis", "setting": "TxB2; 81 mg vs 162.5 mg", "value": "not seen"}, {"measurement": "Bradykinin-stimulated TxB2 levels over placebo", "setting": "TxB2; 81 mg", "value": "significantly reduced"}, {"measurement": "Basal urinary TxB2 levels over placebo", "setting": "TxB2; 162.5 mg daily for 1 week", "value": "significantly reduced"}, {"measurement": "Bradykinin-stimulated TxB2 levels over placebo", "setting": "TxB2; 162.5 mg", "value": "significantly reduced"}, {"measurement": "selectivity for basal TxB2 production over prostacyclin production", "setting": "TxB2; doses of 81 and 162.5 mg/d", "value": "selectively inhibit basal TxB2 production over prostacyclin production"}, {"measurement": "Bradykinin-stimulated IL-8 levels", "setting": "Interleukin-8 (IL-8); 81 mg", "value": "increased"}, {"measurement": "Bradykinin-stimulated IL-8 levels", "setting": "Interleukin-8 (IL-8); 162.5 mg", "value": "increased"}]}]}
